Assay results taken from US4489052A, “Quantitative autoradiographic mapping of focal herpes simplex virus encephalitis using a radiolabeled antiviral drug” (priority 1982, dated 1984).

Tests used:
[1] = rat; cited from earlier work
[2] = system: HSV-1; experiment: Quantitative autoradiography of ^14 C-FMAU uptake in HSV-1-infected rats (focal encephalitis); details: for ^14 C Radioactivity Concentration: ± SD
Text: (§1) These initial studies reflect observations on ten rats receiving ^14 C-FMAU. Seven of these were infected, and three uninfected control rats were subjected to a cortical freeze lesion (13) to test the effects of necrosis and breakdown of the blood-brain barrier on drug distribution.

[3] = rat, in vivo
Text: as §1

[4] = Arterial plasma ^14 C activity by liquid scintillation counting; details: representative infected rat
[5] = system: HSV; details: NIAID Collaborative Study; cited from earlier work

Cc1cn([C@@H]2O[C@H](CO)[C@@H](O)[C@@H]2F)c(=O)[nH]c1=O [FMAU]
metabolic alteration [1]: only a minor fraction undergoes metabolic alteration

Cc1cn([C@@H]2O[C@H](CO)[C@@H](O)[C@@H]2F)[14c](=O)[nH]c1=O [^14 C-FMAU]
isotope uptake within infected brain regions ([2]; 24 hours after isotope injection): similarly enhanced within infected brain regions
activity in lateral walls of the lateral ventricles ([2]; 24 hours, apparently uninfected ependymal lining): higher activity was noted
^14 C Radioactivity Concentration ([2]; Brain (C): Background, left cortex, viral antigen -, 6 hours): 104.35 ± 4.88 nCi/gm
^14 C Radioactivity Concentration ([2]; Brain (C): Left ventricular choroid plexus, viral antigen -, 6 hours): 188.59 ± 9.18 nCi/gm
^14 C Radioactivity Concentration ([2]; Brain (C): Optic chiasm, right, viral antigen +, 6 hours): 325.12 ± 16.46 nCi/gm
^14 C Radioactivity Concentration ([2]; Brain (D): Background, left cortex, viral antigen -, 6 hours): 95.29 ± 4.32 nCi/gm
^14 C Radioactivity Concentration ([2]; Brain (D): Left hypothalamus, viral antigen +, 6 hours): 1170.91 ± 66.90 nCi/gm
^14 C Radioactivity Concentration ([2]; Brain (D): Left optic tract, viral antigen +, 6 hours): 1105.89 ± 77.34 nCi/gm
^14 C Radioactivity Concentration ([2]; Brain (D): Right hypothalamus, viral antigen +, 6 hours): 1138.10 ± 99.57 nCi/gm
^14 C Radioactivity Concentration ([2]; Brain (E): Background, left cortex, viral antigen -, 6 hours): 96.78 ± 4.66 nCi/gm
^14 C Radioactivity Concentration ([2]; Brain (E): Background, right central thalamus, viral antigen -, 6 hours): 67.47 ± 3.90 nCi/gm
^14 C Radioactivity Concentration ([2]; Brain (E): Left dorsomedial thalamus, viral antigen +, 6 hours): 1183.53 ± 163.31 nCi/gm
^14 C Radioactivity Concentration ([2]; Brain (E): Left lateral thalamus, viral antigen +, 6 hours): 198.21 ± 21.00 nCi/gm
^14 C Radioactivity Concentration ([2]; Brain (F): Background, left cortex, viral antigen -, 6 hours): 106.57 ± 5.53 nCi/gm
^14 C Radioactivity Concentration ([2]; Brain (F): Central midbrain, viral antigen +, 6 hours): 468.81 ± 23.96 nCi/gm
^14 C Radioactivity Concentration ([2]; Brain (G): Background, central brainstem, viral antigen -, 6 hours): 110.97 ± 9.98 nCi/gm
^14 C Radioactivity Concentration ([2]; Brain (G): Background, left cortex, viral antigen -, 6 hours): 83.08 ± 7.70 nCi/gm
^14 C Radioactivity Concentration ([2]; Brain (G): Pineal gland, viral antigen +, 6 hours): 1509.18 ± 97.65 nCi/gm
^14 C Radioactivity Concentration ([2]; Eye (B): Retina, inferior, viral antigen +, 6 hours): 1528.07 ± 140.36 nCi/gm
^14 C Radioactivity Concentration ([2]; Eye (B): Retina, posterior, viral antigen +, 6 hours): 2447.81 ± 172.66 nCi/gm
^14 C Radioactivity Concentration ([2]; Liver, viral antigen staining -, 6 hours after ^14 C-FMAU (5 mg/kg i.v.)): 188.25 ± 13.19 nCi/gm
^14 C activity within infected regions vs background ([2]; each HSV-1-infected rat): exceeded background within infected regions and correlating closely with viral antigen staining in each case
selectivity of uptake by infected brain cells ([2]; radiolabeled FMAU, HSV-1 infection): selectively taken up by infected brain cells
background distribution of ^14 C activity ([2]; uninfected brain regions, 6 hours): quite uniform, with only minor variations among uninfected brain regions
isotope uptake in or surrounding the area of necrosis [3]: no increase in isotope uptake was detected
plasma ^14 C-FMAU concentration time course ([4]; 5 mg/kg i.v., to 6 hours): fell rapidly over the first 30 mins and more slowly thereafter
plasma ^14 C-FMAU concentration at the time of sacrifice ([4]; 6 hours after 5 mg/kg i.v.): approximately 185 nCi/gm

Nc1ncnc2c1ncn2[C@@H]1O[C@H](CO)[C@@H](O)[C@@H]1O [ara-A]
therapeutic effect in HSV encephalitis [5]: less than optimal
